Assays:
[1] = system: PML-RARα transformed cells; assay: Clonogenic assay in methylcellulose, RTTA-transformed primary leukaemic cells; type: cell-based, mouse
Experimental: (§1) FIG. 2 AML1-ETO and PML-RARα leukemic cells are sensitive to PARPi. A) Representative scheme of experimental procedures. B) Non linear regression dose response curve. Normal bone marrow c-kit cells and pre-leukaemic cells expressing the oncofusion proteins AML1-ETO, E2A-PBX, MLL-AF9 and PML-RARα were grown in methylcellulose for 7 days with escalating doses of PARPi. Data representative of three independent experiments are shown. C) Percentage of survival of preleukemic cells to PARPi. The number of colonies surviving to seven days incubation with PARPi treatment was normalized against the untreated control. Data representative of six independent experiments are shown ±SD. […] D) Colony morphology (phase contrast microscopy, magnification 40×). Representative pictures are shown. E) Efficiency of PARP1 Knock down (KD) in NIH3T3 cells infected with retroviral vectors expressing shRNA against mouse PARP1. qPCR data showing expression of PARP1 mRNA in NIH3T3 after infection with sh-mPARP1. Data representative of two independent experiments are shown ±SD. Paired two-tailed t test was performed between empty vector and i) scramble, ii) sh-PARP1-A and iii) sh-PARP1-D*p<0.05. F) Efficiency of PARP1 by Western Blot. Western Blot data showing protein level of PARP1 in NIH3T3 after infection with sh-mPARP1. G) Efficiency of PARP1 KD in leukemic cells infected with retroviral vectors expressing shRNA against mouse PARP1. qPCR data showing expression of PARP1 mRNA in leukemic cells after infection with sh-mPARP1. Data representative of three independent experiments are shown ±SD. 2-way Anova test was performed between empty vector and i) scramble, ii) sh-PARP1-A and iii) sh-PARP1-D*p<0.05, **p<0.01, ***p<0.001. H) Relative number of colonies arisen from leukemic cells transformed by indicated oncoproteins after shPARP1-mediated KD. Bone marrow cells were co-transduced with retroviral vectors carrying the oncogene of interest and empty vector or sh-scramble or shPARP1. The number of colonies was normalized against the empty vector control. Data representative of three independent experiments are shown ±SD. 2-way Anova test was performed between empty vector and i) scramble, ii) sh-PARP1-A and iii) sh-PARP1-D*p<0.05, **p<0.01, ***p<0.001. I) Colony morphology from phase contrast microscopy (magnification 40×). Representative pictures are shown. […] The number of colonies after PARPi treatment was normalized against the untreated control. Data representative of three independent experiments are shown ±SD. […] K) Colony morphology (phase contrast microscopy, magnification 20×). Representative pictures are shown. […] The number of colonies after PARPi treatment was normalized against the untreated control. Data representative of three independent experiments are shown ±SD. […] M) Colony morphology (phase contrast microscopy, magnification 20×). Representative pictures are shown. […] The number of colonies after PARPi treatment was normalized against the untreated control. Data representative of three independent experiments are shown ±SD. […] O) Colony morphology (phase contrast microscopy, magnification 20×). Representative pictures are shown.
(§2) Briefly, c-kit positive progenitor cells of wild type Ly5.1 mouse bone marrow transduced with a retroviral vector expressing the LATFs of interest were plated into a methylcellulose medium supplemented with appropriate myeloid cytokines. Replating was performed every week to generate primary cell lines for further analysis. […] Veliparib is an inhibitor of PARP1/2 produced by Abbott and widely used in clinical trials.

[2] = system: E2A-PBX transformed cells; assay: as above; type: cell-based, mouse; conditions: 1 μM, methylcellulose 7 days
Experimental: as §1, §2

[3] = system: MLL-AF9 transformed cells; assay: as above; type: cell-based, mouse; conditions: 1 μM, methylcellulose 7 days
Experimental: as §1, §2

[4] = system: AML1-ETO transformed cells; assay: as above; type: cell-based, mouse
Experimental: as §1, §2

MLL-AF9 cells = assay: C57Bl/6 mice injected with leukaemic MLL-AF9 cells; type: in vivo; conditions: Olaparib 50 mg/kg intra-peritoneal daily for two weeks
Experimental: (§3) A) Kaplan-Meier survival curve relative to NSG mice injected with NB4 human cells. NB4 human cells expressing the oncogene PML-RARα were injected intravenously in NSG mice and distributed in two groups. […] Treatment was performed for two weeks. Mice were monitored daily until the development of symptoms of leukaemia, when bone marrow (B), spleen (C) and liver (D) were harvested, processed, stained with PE-conjugated antibody against human CD33 and analysed by FACS, to quantify the human cell engraftment in these organs. E) Kaplan-Meier survival curve relative to NSG mice injected with Kasumi human cells. Kasumi human cells expressing the oncogene AML1-ETO were injected intra-femur in NSG mice and distributed in two groups. […] Treatment was performed for two weeks. Mice were monitored daily until the development of symptoms of leukaemia, when bone marrow (F), spleen (G) and liver (H) were harvested, processed, stained with PE-conjugated antibody against human CD33 and analysed by FACS, to quantify the human cell engraftment in these organs. […] Mice were monitored daily until the development of symptoms of leukaemia, when bone marrow (K), spleen (L) and liver (M) were harvested, processed, stained with PE-conjugated antibody against mouse Gr1 and analysed by FACS, to quantify the human cell engraftment in these organs. […]

NB4 = assay: Colony assay in methylcellulose, human cell line; type: cell-based; conditions: Olaparib 1-5 μM, methylcellulose 7 days
Experimental: (§4) FIG. 2 AML1-ETO and PML-RARα leukemic cells are sensitive to PARPi. A) Representative scheme of experimental procedures. B) Non linear regression dose response curve. Normal bone marrow c-kit cells and pre-leukaemic cells expressing the oncofusion proteins AML1-ETO, E2A-PBX, MLL-AF9 and PML-RARα were grown in methylcellulose for 7 days with escalating doses of PARPi. Data representative of three independent experiments are shown. C) Percentage of survival of preleukemic cells to PARPi. The number of colonies surviving to seven days incubation with PARPi treatment was normalized against the untreated control. Data representative of six independent experiments are shown ±SD. […] D) Colony morphology (phase contrast microscopy, magnification 40×). Representative pictures are shown. E) Efficiency of PARP1 Knock down (KD) in NIH3T3 cells infected with retroviral vectors expressing shRNA against mouse PARP1. qPCR data showing expression of PARP1 mRNA in NIH3T3 after infection with sh-mPARP1. Data representative of two independent experiments are shown ±SD. Paired two-tailed t test was performed between empty vector and i) scramble, ii) sh-PARP1-A and iii) sh-PARP1-D*p<0.05. F) Efficiency of PARP1 by Western Blot. Western Blot data showing protein level of PARP1 in NIH3T3 after infection with sh-mPARP1. […]

Kasumi = assay: Colony assay in methylcellulose, human cell line; type: cell-based; conditions: Olaparib 1-5 μM, methylcellulose 7 days
Experimental: as §4

bone marrow c-kit+ cells = assay: PARPi titration, colony assay in methylcellulose, normal bone marrow cells; type: cell-based; conditions: Mus musculus, Bone marrow cell, 168 h; colonies counted after seven days in methylcellulose; nonlinear regression
Experimental: FIG. 1 PARPi titration. A) PARPi titration in normal bone marrow c-kit cells grown in methylcellulose for 7 days. Data representative of three independent experiments are shown ±SD. […] B) Non linear regression dose response curve, obtained by logarithmic transformation of the data presented in the panel A. C) Colony morphology (contrast microscopy magnification 40×). Representative pictures are shown.
Bone marrow cells were treated with escalating doses of Olaparib in methylcellulose. After seven days colonies were counted. The number of colonies obtained in the untreated condition was set as the top value (100%). The bottom value (0) was calculated as the lowest concentration resulting in no colonies. The data where then analyzed in a nonlinear regression dose-response curve (FIG. 1).

[5] = system: ATRA resistant M4-PML-RARα cells; assay: ATRA resistant mouse model, FVB mice injected with M4-PML-RARα cells; type: in vivo; conditions: Olaparib 50 mg/kg intra-peritoneal daily for two weeks
Experimental: as §3

[6] = system: breast, prostate and ovarian cancer patients carrying mutations in BRCA1 or BRCA2 genes; conditions: phase I and phase II trials; cited from earlier work
[7] = system: Kasumi human cells expressing the oncogene AML1-ETO; assay: Survival of NSG mice injected intra-femur with Kasumi human cells; type: in vivo
Experimental: (§5) A) Kaplan-Meier survival curve relative to NSG mice injected with NB4 human cells. NB4 human cells expressing the oncogene PML-RARα were injected intravenously in NSG mice and distributed in two groups. […] Treatment was performed for two weeks. Mice were monitored daily until the development of symptoms of leukaemia, when bone marrow (B), spleen (C) and liver (D) were harvested, processed, stained with PE-conjugated antibody against human CD33 and analysed by FACS, to quantify the human cell engraftment in these organs. E) Kaplan-Meier survival curve relative to NSG mice injected with Kasumi human cells. Kasumi human cells expressing the oncogene AML1-ETO were injected intra-femur in NSG mice and distributed in two groups. […] Treatment was performed for two weeks. Mice were monitored daily until the development of symptoms of leukaemia, when bone marrow (F), spleen (G) and liver (H) were harvested, processed, stained with PE-conjugated antibody against human CD33 and analysed by FACS, to quantify the human cell engraftment in these organs. I) and J Kaplan-Meier survival curves of FVB and C57Bl/6 mice injected with M4-PML-RARα and MLL-AF9 cells, respectively. ATRA resistant M4-PML-RARα cells were injected intravenously in FVB mice and distributed in three groups. […] Mice were monitored daily until the development of symptoms of leukaemia, when bone marrow (K), spleen (L) and liver (M) were harvested, processed, stained with PE-conjugated antibody against mouse Gr1 and analysed by FACS, to quantify the human cell engraftment in these organs. […]
(§6) In order to test the efficacy of this treatment in vivo, we transplanted Kasumi and NB4 cell lines into a small cohort of sublethally irradiated NOD/SCID/IL2Rg−/− (NSG) mice by intra-femoral and intravenous injection, respectively. […] The maximum dose tolerated was calculated by in vivo dose-response experiments. Mice were monitored daily until they developed symptoms of leukaemia, when they were culled and bone marrow, spleen and liver harvested and analyzed by FACS. […]

[8] = system: untargeted population of ovarian cancer; conditions: phase II; cited from earlier work
NB4-LR2 = assay: Colony assay in methylcellulose, ATRA resistant APL cell model; type: cell-based, human; conditions: Olaparib 5 μM, methylcellulose 7 days
Experimental: as §4

NB4-MR2 = assay: as above; type: cell-based, human; conditions: Olaparib 5 μM, methylcellulose 7 days
Experimental: as §4

[9] = system: NB4 human cells expressing the oncogene PML-RARα; assay: Survival of NSG mice injected intravenously with NB4 human cells; type: in vivo
Experimental: as §5, §6

[10] = Olaparib 25 mg/kg daily for two weeks, FACS human CD33
[11] = Olaparib 25 mg/kg intra-peritoneal daily for two weeks

SMILES: C[C@]1(c2nc3c(C(N)=O)cccc3[nH]2)CCCN1 [Veliparib, 2-((R)-2-methylpyrrolidin-2-yl)-1H-benzimidazole-4-carboxamide]
- effect on colonies ([1]; 1 μM, methylcellulose 7 days): reduced colonies
- effect on colonies [2]: no effect
- effect on colonies [3]: no effect
- effect on colonies ([4]; 1 μM, methylcellulose 7 days): reduced colonies

SMILES: O=C(c1cc(Cc2n[nH]c(=O)c3ccccc23)ccc1F)N1CCN(C(=O)C2CC2)CC1 [Olaparib, 4-[(3-[(4-cyclopropylcarbonyl)piperazin-4-yl]carbonyl)-4-fluorophenyl]methyl(2H)-phthalazin-1-one]
- effect on mice developing leukaemia (MLL-AF9 cells): did not have any significant effect
- efficacy on colony number (NB4): confirm the efficacy
- efficacy on colony number (Kasumi): confirm the efficacy
- IC50 (bone marrow c-kit+ cells): 1900 nM
- onset of the leukaemia [5]: significantly delayed
- anti-tumour effect [6]: anti-tumour effect
- side effects [6]: grade 1 or 2
- engraftment in bone marrow, spleen and liver [7, 10]: variable reduction
- onset of the leukaemia [7, 11]: significantly delayed
- median survival ([7]; Olaparib 25 mg/kg intra-peritoneal daily for two weeks, control 50 days, experiment still ongoing): 115 days
- overall survival benefit compared to chemotherapy [8]: failed to show overall survival benefit
- sensitivity (colony number) (NB4-LR2): extremely sensitive
- sensitivity (colony number) (NB4-MR2): extremely sensitive
- IC50 ([1]; Mus musculus, 168 h): 15.8 nM
- reduction in colony forming ability ([1]; Olaparib 1 uM, p<0.05): 70-90%
- IC50 ([4]; Mus musculus, 168 h): 33.4 nM
- reduction in colony forming ability ([4]; Olaparib 1 uM, p<0.05): 70-90%
- reduction of number of colonies after additional replating ([4]; replating in semi-solid medium containing Olaparib, p<0.05): 90%
- engraftment in bone marrow, spleen and liver [9, 10]: variable reduction
- onset of the leukaemia [9, 11]: significantly delayed
- median survival ([9]; Olaparib 25 mg/kg intra-peritoneal daily for two weeks, control 30 days): 47 days

Source: US20160208339A1, “BIOMARKERS CORRELATED TO PARP INHIBITOR TREATMENT SUCCESS IN AML PATIENTS” (KING'S COLLEGE LONDON, priority 2013, published 2016)
